From US8859021B2, “Skin appearance through gene manipulation” (Sytheon, priority 2007, dated 2014)

Tested on: EpiDerm tissues
Settings: retinol 10 μg/ml, Sytenol A 5 μg/ml, 2 days

**Q.** `C=C[C@@](C)(/C=C/c1ccc(O)cc1)CCC=C(C)C` [Sytenol A, bakuchiol] was tested. Which “Laminins up-regulation by Sytenol A relative to retinol” value did it give?
**A.** almost three-fold more than retinol

**Q.** And the “Lecithin retinol acyltransferase up-regulation by Sytenol A relative to retinol” value?
**A.** almost seven-fold higher than by retinol

**Q.** What about the “Fold Change, ACTN1 Alpha-actinin-1 (Alpha-actinin cytoskeletal isoform) (Table 8)” value (vs 0.1% DMSO control) of the same compound?
**A.** +2.70 fold

**Q.** And the “Fold Change, ACTN1 Alpha-actinin-1 (Alpha-actinin cytoskeletal isoform) (Table 9)” value (vs 0.1% DMSO control)?
**A.** +2.70 fold

**Q.** What about the “Fold Change, ACTN4 Alpha-actinin-4(F-actin cross-linking protein) (Table 8)” value (vs 0.1% DMSO control) of the same compound?
**A.** +3.13 fold

**Q.** What about the “Fold Change, ACTN4 Alpha-actinin-4(F-actin cross-linking protein) (Table 9)” value (vs 0.1% DMSO control) of the same compound?
**A.** +3.13 fold

**Q.** What about the “Fold Change, AFAP1L2 Actin filament-associated protein 1-like 2” value (vs 0.1% DMSO control) of the same compound?
**A.** +3.84 fold

**Q.** What about the “Fold Change, C16orf30 Claudin-like protein 24” value (vs 0.1% DMSO control) of the same compound?
**A.** No effect

**Q.** What about the “Fold Change, CDH1 Epithelia-cadherin precursor (E-cadherin) (Table 7)” value (vs 0.1% DMSO control) of the same compound?
**A.** +21.56 fold

**Q.** What about the “Fold Change, CDH1 Epithelial-cadherin precursor (E-cadherin) E-Cad/CTF1 (Table 9)” value (vs 0.1% DMSO control) of the same compound?
**A.** +21.56 fold

**Q.** And the “Fold Change, CDH3 Cadherin-3-precursor (P-cadherin)” value (vs 0.1% DMSO control)?
**A.** +7.47 fold

**Q.** And the “Fold Change, CDH19 Cadherin-19-precursor” value (vs 0.1% DMSO control)?
**A.** No effect

**Q.** What about the “Fold Change, CDH24 Cadherin-24-precursor” value (vs 0.1% DMSO control) of the same compound?
**A.** +2.28 fold

**Q.** And the “Fold Change, CDK5R1 Tau protein kinase II 23 kDa subunit (Cyclin-dependent kinase 5 activator 1 precursor (CDK5 activator 1))” value (vs 0.1% DMSO control)?
**A.** +2.66 fold

**Q.** And the “Fold Change, CLDN4 Claudin-4 (Clostridium perfringens enterotoxin receptor) (CPE-R)” value (vs 0.1% DMSO control)?
**A.** +5.92 fold

**Q.** What about the “Fold Change, CLDN5 Claudin-5 (Transmembrane protein deleted in VCFS)” value (vs 0.1% DMSO control) of the same compound?
**A.** No effect

**Q.** And the “Fold Change, CLDN6 Claudin-6 (Skullin 2)” value (vs 0.1% DMSO control)?
**A.** No effect

**Q.** And the “Fold Change, CLDN7 Claudin-7 (CLDN-7)” value (vs 0.1% DMSO control)?
**A.** +46.09 fold

**Q.** What about the “Fold Change, CLDN11 Claudin-11 (Oligodendrocyte-specific protein)” value (vs 0.1% DMSO control) of the same compound?
**A.** −4.01 fold

**Q.** And the “Fold Change, CLDN12 Claudin-12” value (vs 0.1% DMSO control)?
**A.** +2.00 fold

**Q.** What about the “Fold Change, CLDN16 Claudin-16 (Paracellin-1) (PCLN-1)” value (vs 0.1% DMSO control) of the same compound?
**A.** +11.62 fold

**Q.** What about the “Fold Change, COL1A2 Collagen alpha-2 (I) chain precursor (Alpa-2 type I collagen)” value (vs 0.1% DMSO control) of the same compound?
**A.** +1.85 fold

**Q.** What about the “Fold Change, COL3A1 Collagen alpha-1 (III) chain precursor” value (vs 0.1% DMSO control) of the same compound?
**A.** No effect

**Q.** What about the “Fold Change, COL9A2 Collagen alpha-2 (IX) chain precursor” value (vs 0.1% DMSO control) of the same compound?
**A.** +6.67 fold

**Q.** What about the “Fold Change, COL9A3 Collagen alpha-3 (IX) chain precursor” value (vs 0.1% DMSO control) of the same compound?
**A.** +5.76 fold

**Q.** What about the “Fold Change, CTHRC1 Collagen triple helix repeat-containing protein 1 precursor” value (vs 0.1% DMSO control) of the same compound?
**A.** −10.17 fold

**Q.** And the “Fold Change, CTNNAL1 Alpha-catenin-related protein (ACRP) (Table 8)” value (vs 0.1% DMSO control)?
**A.** No effect

**Q.** And the “Fold Change, CTNNAL1 Alpha-catenin-related protein (ACRP) (Table 9)” value (vs 0.1% DMSO control)?
**A.** No effect

**Q.** And the “Fold Change, CYP26B1 Cytochrome P450 26B1 (Retinoic acid-metabolizing cytochrome)” value (vs 0.1% DMSO control)?
**A.** −1.74 fold

**Q.** And the “Fold Change, Connective tissue growth factor precursor (Hypertrophic chondrocyte-specific protein 24)” value (vs 0.1% DMSO control)?
**A.** −2.56 fold

**Q.** And the “Fold Change, DHRS9 NADP-dependent retinol dehydrogenase/reductase” value (vs 0.1% DMSO control)?
**A.** +11.56 fold

**Q.** And the “Fold Change, DSC1 Desmocollin-1-precursor (DG2/DG3)” value (vs 0.1% DMSO control)?
**A.** −5.96 fold

**Q.** What about the “Fold Change, DSC2 Desmocollin-2-precursor (Desmocollin-3)” value (vs 0.1% DMSO control) of the same compound?
**A.** +4.68 fold

**Q.** What about the “Fold Change, DSG1 Desmoglein-1-precursor (DG1)” value (vs 0.1% DMSO control) of the same compound?
**A.** −2.26 fold

**Q.** And the “Fold Change, DSG2 Desmoglein-2-precursor” value (vs 0.1% DMSO control)?
**A.** +20.15 fold

**Q.** What about the “Fold Change, DSG3 Desmoglein-3-precursor” value (vs 0.1% DMSO control) of the same compound?
**A.** +4.25 fold

**Q.** What about the “Fold Change, DSG4 Desmoglein-4-precursor” value (vs 0.1% DMSO control) of the same compound?
**A.** +10.59 fold

**Q.** And the “Fold Change, ECM1 Extracellular matrix protein 1 precursor” value (vs 0.1% DMSO control)?
**A.** +2.00 fold

**Q.** What about the “Fold Change, ECM2 Extracellular matrix protein 2 precursor” value (vs 0.1% DMSO control) of the same compound?
**A.** +4.10 fold

**Q.** What about the “Fold Change, ELA3B Elastase-3B precursor (Elastase IIIB)” value (vs 0.1% DMSO control) of the same compound?
**A.** +6.58 fold

**Q.** What about the “Fold Change, F11R Junctional adhesion molecule 1 (JAM-1)” value (vs 0.1% DMSO control) of the same compound?
**A.** +8.92 fold

**Q.** What about the “Fold Change, FLNB Actin-binding-like protein” value (vs 0.1% DMSO control) of the same compound?
**A.** +5.87 fold

**Q.** And the “Fold Change, FLRT2 Fibronectin-like-domain-containing leucine-rich transmembrane protein 2” value (vs 0.1% DMSO control)?
**A.** No effect

**Q.** What about the “Fold Change, FLRT3 Fibronectin-like-domain-containing leucine-rich transmembrane protein 3” value (vs 0.1% DMSO control) of the same compound?
**A.** +6.18 fold

**Q.** And the “Fold Change, FNDC7 Fibronectin type III domain containing 7” value (vs 0.1% DMSO control)?
**A.** +9.14 fold

**Q.** What about the “Fold Change, Fibroblast growth factor 9 (HBGF-9)” value (vs 0.1% DMSO control) of the same compound?
**A.** −2.34 fold

**Q.** And the “Fold Change, Fibroblast growth factor 23 precursor (FGF-23) (Tumor-derived hypophosphatemia-inducing factor)” value (vs 0.1% DMSO control)?
**A.** −3.01 fold

**Q.** What about the “Fold Change, Fibroblast growth factor receptor 2 precursor (FGFR-2)” value (vs 0.1% DMSO control) of the same compound?
**A.** +8.93 fold

**Q.** What about the “Fold Change, Fibroblast growth factor-binding protein 1 precursor (FGF-BP1)” value (vs 0.1% DMSO control) of the same compound?
**A.** +2.69 fold

**Q.** And the “Fold Change, GSN Gelsolin precursor (Actin-depolymerizing factor) (ADF)” value (vs 0.1% DMSO control)?
**A.** +3.19 fold

**Q.** And the “Fold Change, HAS2 Hyaluronan synthase 2” value (vs 0.1% DMSO control)?
**A.** No effect

**Q.** What about the “Fold Change, HAS3 Hyaluronan synthase 3” value (vs 0.1% DMSO control) of the same compound?
**A.** +19.29 fold

**Q.** What about the “Fold Change, HS3ST1 Heparan sulfate 3-O-sulfotransferase 1 (Table 6)” value (vs 0.1% DMSO control) of the same compound?
**A.** +24.91 fold

**Q.** What about the “Fold Change, HS6ST1 Heparan sulfate 6-O-sulfotransferase 1” value (vs 0.1% DMSO control) of the same compound?
**A.** +1.79 fold

**Q.** And the “Fold Change, HYAL1 Hyaluronidase-1-precursor” value (vs 0.1% DMSO control)?
**A.** No effect

**Q.** What about the “Fold Change, Heparin-binding EGF-like growth factor precursor (HB-EGF)” value (vs 0.1% DMSO control) of the same compound?
**A.** +5.09 fold

**Q.** And the “Fold Change, IGSF1 Immunoglobulin superfamily, member 1 isoform 1” value (vs 0.1% DMSO control)?
**A.** +2.81 fold

**Q.** What about the “Fold Change, IGSF3 Immunoglobulin superfamily, member 3 isoform 2” value (vs 0.1% DMSO control) of the same compound?
**A.** +3.39 fold

**Q.** And the “Fold Change, ITG5 Integrin beta-5 precursor (Table 7)” value (vs 0.1% DMSO control)?
**A.** No effect

**Q.** What about the “Fold Change, ITGA6 Integrin alpha-6 precursor” value (vs 0.1% DMSO control) of the same compound?
**A.** +3.57 fold

**Q.** And the “Fold Change, ITGB2 Integrin beta-2-precursor” value (vs 0.1% DMSO control)?
**A.** −7.67 fold

**Q.** What about the “Fold Change, ITGB4 Integrin beta-4 precursor (Table 7)” value (vs 0.1% DMSO control) of the same compound?
**A.** +7.98 fold

**Q.** And the “Fold Change, ITGB6 Integrin beta-6-precursor (Table 7)” value (vs 0.1% DMSO control)?
**A.** +7.71 fold

**Q.** And the “Fold Change, ITGB8 Integrin beta-8 precursor (Table 3)” value (vs 0.1% DMSO control)?
**A.** +3.90 fold

**Q.** What about the “Fold Change, ITGB8 Integrin beta-8 precursor (Table 7)” value (vs 0.1% DMSO control) of the same compound?
**A.** +3.90 fold

**Q.** What about the “Fold Change, Insulin growth factor-like family member 3 precursor (IGBP-3)” value (vs 0.1% DMSO control) of the same compound?
**A.** −8.67 fold

**Q.** What about the “Fold Change, Insulin growth factor-like family member 4 precursor (IGBP-4)” value (vs 0.1% DMSO control) of the same compound?
**A.** +2.41 fold

**Q.** And the “Fold Change, Insulin-like growth factor-binding protein 6 precursor (IGBP-6)” value (vs 0.1% DMSO control)?
**A.** +4.03 fold
